# Source: the supplement of paper PMC11061612
# What was measured:
# Assay in all cases: Bliss excess, mean over the matrix (fraction); higher = more synergy
# [1] = system: NALM-6 (B-Lymphoblastic Leukemia)
# Procedure, shortened: (§1)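 Bliss excess equals the observed combination effect minus the expected value EA + EB − EA·EB, where EA and EB are the effects of each agent alone. Combination Emax is the second-highest inhibition within the matrix. Inhibition was scaled from CellTiter-Glo 2.0 luminescence, with 0 set by vehicle wells and 1 by blank wells, after 72 hours of two-drug dosing of cells plated in 1536-well plates.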
# [2] = system: SW1990 (Pancreatic Carcinoma)
# Procedure, shortened: as §1
# [3] = system: SUIT-2 (Pancreatic Carcinoma)
# Procedure, shortened: as §1
# [4] = system: KATOIII (Gastric Carcinoma)
# Procedure, shortened: as §1
# [5] = system: IHH-4 (Thyroid Gland Carcinoma)
# Procedure, shortened: as §1
# [6] = system: G-292-Clone-A141B1 (Osteosarcoma)
# Procedure, shortened: as §1
# [7] = system: MDA-MB-157 (Breast Carcinoma)
# Procedure, shortened: as §1
# [8] = system: DOV13 (Ovarian Carcinoma)
# Procedure, shortened: as §1
# [9] = system: MFH-ino (Other Solid Carcinomas)
# Procedure, shortened: as §1
# [10] = system: TGBC24TKB (Biliary Tract Carcinoma)
# Procedure, shortened: as §1
# IGR-1 (Melanoma) = system: IGR-1 (Melanoma)
# Procedure, shortened: as §1
# [11] = system: DB (B-Cell Non-Hodgkin's Lymphoma)
# Procedure, shortened: as §1
# [12] = system: HCC2157 (Breast Carcinoma)
# Procedure, shortened: as §1
# [13] = system: HPAC (Pancreatic Carcinoma)
# Procedure, shortened: as §1
# [14] = system: SW756 (Cervical Carcinoma)
# Procedure, shortened: as §1
# CAL-78 (Chondrosarcoma) = system: CAL-78 (Chondrosarcoma)
# Procedure, shortened: as §1
# [15] = system: HT-29 (Colorectal Carcinoma)
# Procedure, shortened: as §1
# [16] = system: EM-2 (Chronic Myelogenous Leukemia)
# Procedure, shortened: as §1
# J82 (Bladder Carcinoma) = system: J82 (Bladder Carcinoma)
# Procedure, shortened: as §1
# [17] = system: SW1088 (Low Grade Glioma)
# Procedure, shortened: as §1
Structure (SMILES),Bliss excess [1],Bliss excess [2],Bliss excess [3],Bliss excess [4],Bliss excess [5],Bliss excess [6],Bliss excess [7],Bliss excess [8],Bliss excess [9],Bliss excess [10],Bliss excess (IGR-1 (Melanoma)),Bliss excess [11],Bliss excess [12],Bliss excess [13],Bliss excess [14],Bliss excess (CAL-78 (Chondrosarcoma)),Bliss excess [15],Bliss excess [16],Bliss excess (J82 (Bladder Carcinoma)),Bliss excess [17]
"COc1nnc2ccc(N3CCC(c4ccc(OCCN5CCN(C)C(=O)[C@H]5C)cc4)CC3)nn12 [AZD5153] + Cc1c2c(nn1C)CSCc1cc(n(C)n1)CSc1cc(c3ccccc3c1)OCCCc1c(C(=O)O)n(C)c3c-2c(Cl)ccc13 [AZD5991] (first compound max 1 µM, 7x7, partner max 1 µM)",-0.0732,-0.0477,-0.0318,-0.0765,-0.0329,-0.032,0.0297,-0.108,-0.0333,0.0447,0.0094,0.0507,0.0049,-0.0105,-0.0238,-0.0263,-0.0227,0.0004,0.0439,0.0112
"COc1nnc2ccc(N3CCC(c4ccc(OCCN5CCN(C)C(=O)[C@H]5C)cc4)CC3)nn12 [AZD5153] + Cn1cnc2c(F)c(Nc3ccc(Br)cc3Cl)c(C(=O)NOCCO)cc21 [Selumetinib] (first compound max 1 µM, 7x7, partner max 10 µM)",0.0085,-0.0209,0.0227,-0.0294,0.0085,-0.0388,0.0292,-0.0263,-0.0031,0.158,0.0544,0.0093,-0.0038,0.0161,0.0167,-0.0315,-0.0281,0.0468,0.014,0.029
"Cc1c2c(nn1C)CSCc1cc(n(C)n1)CSc1cc(c3ccccc3c1)OCCCc1c(C(=O)O)n(C)c3c-2c(Cl)ccc13 [AZD5991] + C1CN(CCC1(C(=O)N[C@@H](CCO)C2=CC=C(C=C2)Cl)N)C3=NC=NC4=C3C=CN4 [Capivasertib] (first compound max 1 µM, 7x7, partner max 3 µM)",0.0149,-0.0314,-0.0304,-0.0267,0.0037,-0.0115,0.0573,0.0055,-0.0372,0.0066,0.0228,0.0079,-0.0488,-0.0239,-0.023,0.0091,-0.0114,-0.0149,-0.0046,-0.0562
"Cc1c2c(nn1C)CSCc1cc(n(C)n1)CSc1cc(c3ccccc3c1)OCCCc1c(C(=O)O)n(C)c3c-2c(Cl)ccc13 [AZD5991] + C=CCn1c(=O)c2cnc(Nc3ccc(N4CCN(C)CC4)cc3)nc2n1-c1cccc(C(C)(C)O)n1 [AZD1775] (first compound max 1 µM, partner max 1 µM)",-0.0229,-0.024,0.0014,-0.029,0.02,-0.0178,0.001,-0.038,0.0604,-0.0375,0.061,-0.0165,-0.0438,-0.0132,-0.013,-0.0193,-0.0045,-0.0674,-0.0372,-0.0307
"Cc1c2c(nn1C)CSCc1cc(n(C)n1)CSc1cc(c3ccccc3c1)OCCCc1c(C(=O)O)n(C)c3c-2c(Cl)ccc13 [AZD5991] + CC1(C)CCC(CN2CCN(c3ccc(C(=O)NS(=O)(=O)c4ccc(NCC5CCOCC5)c([N+](=O)[O-])c4)c(Oc4cnc5[nH]ccc5c4)c3)CC2)=C(c2ccc(Cl)cc2)C1 [Venetoclax] (first compound max 1 µM, 7x7, partner max 1 µM)",0.173,-0.0317,-0.0287,-0.0176,0.0037,-0.0292,0.004,0.0007,-0.0512,-0.0051,0.2,0.185,0.0305,-0.0498,-0.0331,-0.0118,-0.0015,0.248,-0.0232,-0.0187
"Cc1c2c(nn1C)CSCc1cc(n(C)n1)CSc1cc(c3ccccc3c1)OCCCc1c(C(=O)O)n(C)c3c-2c(Cl)ccc13 [AZD5991] + CCN(CCO)CCCOc1ccc2c(Nc3cc(CC(=O)Nc4cccc(F)c4)[nH]n3)ncnc2c1 [AZD2811] (first compound max 1 µM, 7x7, partner max 1 µM)",-0.0839,0.0159,0.0126,-0.0687,0.0306,-0.021,0.078,0.0169,0.0053,0.0122,0.0316,0.0711,-0.0241,0.0104,0.0141,-0.0228,0.0498,-0.0729,0.0288,-0.0485
"Cc1c2c(nn1C)CSCc1cc(n(C)n1)CSc1cc(c3ccccc3c1)OCCCc1c(C(=O)O)n(C)c3c-2c(Cl)ccc13 [AZD5991] + CN(C)CCCOc1ccc(-c2ccc3ncc4c(c3c2)n(C2CCOCC2)c(=O)n4C)cn1 [AZD0156] (first compound max 1 µM, 7x7, partner max 1 µM)",0.0032,0.0159,0.0035,-0.0068,0.0541,-0.025,-0.0169,-0.0235,-0.0286,-0.0044,-0.0219,-0.0093,-0.012,0.0384,-0.0015,-0.0212,0.0078,-0.0436,0.0127,-0.0356
"Cc1c2c(nn1C)CSCc1cc(n(C)n1)CSc1cc(c3ccccc3c1)OCCCc1c(C(=O)O)n(C)c3c-2c(Cl)ccc13 [AZD5991] + C[C@@H]1COCCN1C2=NC(=NC(=C2)C3(CC3)[S@](=N)(=O)C)C4=C5C=CNC5=NC=C4 [AZD6738] (first compound max 1 µM, 7x7, partner max 10 µM)",-0.0114,-0.0062,-0.0025,-0.0192,0.0349,-0.001,-0.0076,0.0005,0.0319,-0.006,0.105,0.0042,0.0155,0.0409,0.02,0.0335,0.0165,0.0299,0.0009,-0.0048
"Cc1c2c(nn1C)CSCc1cc(n(C)n1)CSc1cc(c3ccccc3c1)OCCCc1c(C(=O)O)n(C)c3c-2c(Cl)ccc13 [AZD5991] + C[C@@H](Nc1cc(F)cc(F)c1)c1cc(C(=O)N(C)C)cc2c(=O)cc(N3CCOCC3)oc12 [AZD8186] (first compound max 1 µM, 7x7, partner max 3 µM)",0.0341,-0.0948,-0.015,-0.0132,0.0184,-0.013,0.0836,0.0294,-0.0452,0.0027,-0.0031,-0.0287,0.0105,-0.0297,0.0162,-0.0799,-0.012,-0.0528,0.0359,0.0098
"Cc1c2c(nn1C)CSCc1cc(n(C)n1)CSc1cc(c3ccccc3c1)OCCCc1c(C(=O)O)n(C)c3c-2c(Cl)ccc13 [AZD5991] + Cn1cnc2c(F)c(Nc3ccc(Br)cc3Cl)c(C(=O)NOCCO)cc21 [Selumetinib] (first compound max 1 µM, 7x7, partner max 3 µM)",0.0165,-0.0222,-0.0135,-0.0085,-0.026,-0.0558,-0.0098,0.0216,-0.0311,0.0488,0.0239,0.0063,-0.0137,0.005,-0.0058,-0.0288,-0.006,-0.0053,-0.0073,-0.0543
"C[C@@H]1COCCN1c1cc(C2([S@](C)(=N)=O)CC2)nc(-c2ccnc3[nH]ccc23)n1 [AZD6738] + O=C(c1cc(Cc2n[nH]c(=O)c3ccccc23)ccc1F)N1CCN(C(=O)C2CC2)CC1 [Olaparib] (first compound max 10 µM, 7x7, partner max 10 µM)",0.0015,-0.0071,-0.0264,-0.0286,0.0506,0.0195,-0.0453,0.0127,0.0189,-0.0113,0.0059,-0.0359,0.0441,0.0125,-0.0158,0.0285,-0.0014,0.0026,0.031,0.0087
"Cc1cc2ncnn2cc1Nc1ncc2c(n1)n(C1CCOCC1)c(=O)n2C [AZD7648] + C=CCn1c(=O)c2cnc(Nc3ccc(N4CCN(C)CC4)cc3)nc2n1-c1cccc(C(C)(C)O)n1 [AZD1775] (first compound max 10 µM, partner max 1 µM)",-0.041,-0.0255,-0.0403,-0.0052,0.0233,-0.0124,0.0003,-0.0795,0.0118,0.0098,-0.0255,-0.0984,-0.0133,0.0067,-0.0211,-0.0147,-0.0091,-0.015,-0.008,-0.0479
"Cc1cc2ncnn2cc1Nc1ncc2c(n1)n(C1CCOCC1)c(=O)n2C [AZD7648] + CCN(CCO)CCCOc1ccc2c(Nc3cc(CC(=O)Nc4cccc(F)c4)[nH]n3)ncnc2c1 [AZD2811] (first compound max 10 µM, 7x7, partner max 1 µM)",-0.0358,-0.0199,-0.0169,-0.0526,0.0429,0.0147,0.0572,-0.0551,-0.0094,-0.0157,-0.0224,0.0438,0.0278,-0.032,-0.0209,-0.0053,0.0227,-0.073,-0.0488,-0.0312
"Cc1cc2ncnn2cc1Nc1ncc2c(n1)n(C1CCOCC1)c(=O)n2C [AZD7648] + CN(C)CCCOc1ccc(-c2ccc3ncc4c(c3c2)n(C2CCOCC2)c(=O)n4C)cn1 [AZD0156] (first compound max 10 µM, 7x7, partner max 1 µM)",-0.0184,-0.0182,-0.0125,-0.0204,0.0352,-0.0261,0.0406,-0.0169,-0.0299,0.009,-0.0223,-0.0402,0.0081,-0.0025,0.0076,-0.0091,0.0289,0.0183,-0.0131,-0.0698
